According to PubChem BioAssay (NCI):
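Assay format: 96-well plates, 48-hour exposure. GI50: concentration for 50% inhibition of growth. At the TGI there is no net growth.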

How the values were obtained:
Test in all cases: DTP human tumour cell line panel, 48 h; in the data active = GI50 below about 0.43 µM; inactive = the rest
MDA-MB-435 = test system: MDA-MB-435
IGROV1 ovarian = test system: IGROV1 ovarian
MCF7 breast = test system: MCF7 breast
PC-3 prostate = test system: PC-3 prostate
MALME-3M melanoma = test system: MALME-3M melanoma
T-47D breast = test system: T-47D breast
SK-MEL-28 melanoma = test system: SK-MEL-28 melanoma
MOLT-4 leukemia = test system: MOLT-4 leukemia
HCT-116 colon = test system: HCT-116 colon
A498 renal = test system: A498 renal
SN12C renal = test system: SN12C renal
RXF 393 renal = test system: RXF 393 renal
CAKI-1 renal = test system: CAKI-1 renal
HS 578T breast = test system: HS 578T breast
OVCAR-4 ovarian = test system: OVCAR-4 ovarian
HOP-62 NSCLC = test system: HOP-62 NSCLC
NCI-H522 lung = test system: NCI-H522 lung
NCI-H23 lung = test system: NCI-H23 lung
SF-268 CNS = test system: SF-268 CNS
SK-OV-3 ovarian = test system: SK-OV-3 ovarian
ACHN renal = test system: ACHN renal
SW-620 colon = test system: SW-620 colon
U251 CNS = test system: U251 CNS
LOX IMVI melanoma = test system: LOX IMVI melanoma
SNB-19 CNS = test system: SNB-19 CNS
UACC-62 melanoma = test system: UACC-62 melanoma
NCI/ADR-RES ovarian = test system: NCI/ADR-RES ovarian
DU-145 prostate = test system: DU-145 prostate
RPMI-8226 leukemia = test system: RPMI-8226 leukemia
HCT-15 colon = test system: HCT-15 colon
OVCAR-3 ovarian = test system: OVCAR-3 ovarian
TK-10 renal = test system: TK-10 renal
OVCAR-8 ovarian = test system: OVCAR-8 ovarian
SF-539 CNS = test system: SF-539 CNS
NCI-H460 lung = test system: NCI-H460 lung
UACC-257 melanoma = test system: UACC-257 melanoma
HCC-2998 colon = test system: HCC-2998 colon
SK-MEL-5 melanoma = test system: SK-MEL-5 melanoma
UO-31 renal = test system: UO-31 renal
M14 melanoma = test system: M14 melanoma
NCI-H226 lung = test system: NCI-H226 lung
CCRF-CEM leukemia = test system: CCRF-CEM leukemia
COLO 205 colon = test system: COLO 205 colon
SK-MEL-2 melanoma = test system: SK-MEL-2 melanoma
SR leukemia = test system: SR leukemia
786-0 renal = test system: 786-0 renal
OVCAR-5 ovarian = test system: OVCAR-5 ovarian
MDA-MB-231 breast = test system: MDA-MB-231 breast
HT29 colon = test system: HT29 colon
K-562 leukemia = test system: K-562 leukemia
A549 NSCLC = test system: A549 NSCLC
HOP-92 NSCLC = test system: HOP-92 NSCLC
BT-549 breast = test system: BT-549 breast
KM12 colon = test system: KM12 colon
HL-60(TB) leukemia = test system: HL-60(TB) leukemia

Cc1nn(-c2nc3ccccc3[nH]2)c(N)c1-c1ccc(Cl)cc1
inactive: GI50 (MDA-MB-435) 4.6 µM | GI50 (IGROV1 ovarian) 7.75 µM | GI50 (MCF7 breast) 4.31 µM | GI50 (PC-3 prostate) 2.97 µM | GI50 (MALME-3M melanoma) 4.69 µM | GI50 (T-47D breast) 3.42 µM | GI50 (SK-MEL-28 melanoma) 20.9 µM | GI50 (MOLT-4 leukemia) 3.54 µM | GI50 (HCT-116 colon) 4.37 µM | GI50 (A498 renal) 3.02 µM | GI50 (SN12C renal) 5.52 µM | GI50 (RXF 393 renal) 4.26 µM | GI50 (CAKI-1 renal) 8.82 µM | GI50 (HS 578T breast) 9.24 µM | GI50 (OVCAR-4 ovarian) 5.1 µM | GI50 (HOP-62 NSCLC) 7.29 µM | GI50 (NCI-H522 lung) 4.04 µM | GI50 (NCI-H23 lung) 5.23 µM | GI50 (SF-268 CNS) 5.65 µM | GI50 (SK-OV-3 ovarian) 7.4 µM | GI50 (ACHN renal) 4.6 µM | GI50 (SW-620 colon) 4.58 µM | GI50 (U251 CNS) 3.18 µM | GI50 (LOX IMVI melanoma) 5.02 µM | GI50 (SNB-19 CNS) 4.14 µM | GI50 (UACC-62 melanoma) 5.9 µM | GI50 (NCI/ADR-RES ovarian) 4.84 µM | GI50 (DU-145 prostate) 6.86 µM | GI50 (RPMI-8226 leukemia) 4.37 µM | GI50 (HCT-15 colon) 3.88 µM | GI50 (OVCAR-3 ovarian) 7.66 µM | GI50 (TK-10 renal) 4.51 µM | GI50 (OVCAR-8 ovarian) 4.36 µM | GI50 (SF-539 CNS) 5.89 µM | GI50 (NCI-H460 lung) 2.96 µM | GI50 (UACC-257 melanoma) 2.63 µM | GI50 (HCC-2998 colon) 5.12 µM | GI50 (SK-MEL-5 melanoma) 4.08 µM | GI50 (UO-31 renal) 3.79 µM | GI50 (M14 melanoma) 6.68 µM | GI50 (NCI-H226 lung) 8.66 µM | GI50 (CCRF-CEM leukemia) 2.92 µM | GI50 (COLO 205 colon) 4.17 µM | GI50 (SK-MEL-2 melanoma) 5.88 µM | GI50 (SR leukemia) 3.63 µM | GI50 (786-0 renal) 8.31 µM | GI50 (OVCAR-5 ovarian) 46.7 µM | GI50 (MDA-MB-231 breast) 4.5 µM | GI50 (HT29 colon) 4.35 µM | GI50 (K-562 leukemia) 3.55 µM | GI50 (A549 NSCLC) 2.9 µM | GI50 (HOP-92 NSCLC) 3.28 µM | GI50 (BT-549 breast) 12.9 µM | GI50 (KM12 colon) 4.39 µM | GI50 (HL-60(TB) leukemia) 4.31 µM
55.8 µM: TGI (UACC-257 melanoma)
25.1 µM: TGI (HL-60(TB) leukemia)
75.4 µM: TGI (HOP-92 NSCLC)
46.4 µM: TGI (RXF 393 renal)
67.8 µM: TGI (HT29 colon)
> 100 µM: TGI (MDA-MB-435) | TGI (IGROV1 ovarian) | TGI (MCF7 breast) | TGI (PC-3 prostate) | TGI (MALME-3M melanoma) | TGI (T-47D breast) | TGI (SK-MEL-28 melanoma) | TGI (MOLT-4 leukemia) | TGI (HCT-116 colon) | TGI (A498 renal) | TGI (SN12C renal) | TGI (CAKI-1 renal) | TGI (HS 578T breast) | TGI (OVCAR-4 ovarian) | TGI (HOP-62 NSCLC) | TGI (NCI-H522 lung) | TGI (NCI-H23 lung) | TGI (SF-268 CNS) | TGI (SK-OV-3 ovarian) | TGI (ACHN renal) | TGI (SW-620 colon) | TGI (U251 CNS) | TGI (LOX IMVI melanoma) | TGI (SNB-19 CNS) | TGI (UACC-62 melanoma) | TGI (NCI/ADR-RES ovarian) | TGI (DU-145 prostate) | TGI (RPMI-8226 leukemia) | TGI (HCT-15 colon) | TGI (OVCAR-3 ovarian) | TGI (TK-10 renal) | TGI (OVCAR-8 ovarian) | TGI (SF-539 CNS) | TGI (NCI-H460 lung) | TGI (HCC-2998 colon) | TGI (SK-MEL-5 melanoma) | TGI (UO-31 renal) | TGI (M14 melanoma) | TGI (NCI-H226 lung) | TGI (CCRF-CEM leukemia) | TGI (COLO 205 colon) | TGI (SK-MEL-2 melanoma) | TGI (SR leukemia) | TGI (786-0 renal) | TGI (OVCAR-5 ovarian) | TGI (MDA-MB-231 breast) | TGI (K-562 leukemia) | TGI (A549 NSCLC) | TGI (BT-549 breast) | TGI (KM12 colon)
